Drawing on ChEMBL document CHEMBL5291721, “A preclinical secondary pharmacology resource illuminates target-adverse drug reaction associations of marketed drugs” (Nat Commun, 2023), this text covers AC50 for eight compounds.

Some targets named below: Motilin receptor (Homo sapiens, UniProt O43193); Melanocortin receptor 4 (Homo sapiens, UniProt P32245); Adenosine receptor A2a (Homo sapiens, UniProt P29274); Vasopressin V2 receptor (Homo sapiens, UniProt P30518).
The target of test [1] is Gamma-aminobutyric acid receptor subunit alpha-1 (Rattus norvegicus, UniProt P62813).
Chain of Gamma-aminobutyric acid receptor subunit alpha-1 (P62813 whole entry): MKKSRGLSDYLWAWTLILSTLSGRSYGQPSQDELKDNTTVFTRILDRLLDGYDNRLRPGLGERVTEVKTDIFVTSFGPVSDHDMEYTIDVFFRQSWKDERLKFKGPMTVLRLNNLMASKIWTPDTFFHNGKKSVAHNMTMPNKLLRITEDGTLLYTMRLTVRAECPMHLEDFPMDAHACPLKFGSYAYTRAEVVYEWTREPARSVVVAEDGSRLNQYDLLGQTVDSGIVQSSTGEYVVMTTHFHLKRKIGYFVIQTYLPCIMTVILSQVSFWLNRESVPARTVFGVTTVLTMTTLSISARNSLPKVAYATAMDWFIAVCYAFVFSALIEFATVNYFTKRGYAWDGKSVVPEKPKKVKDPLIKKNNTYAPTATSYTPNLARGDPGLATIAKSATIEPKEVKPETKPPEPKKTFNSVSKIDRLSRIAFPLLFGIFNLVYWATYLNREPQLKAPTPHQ
Test [2] deals with Voltage-gated inwardly rectifying potassium channel KCNH2 (Homo sapiens, UniProt Q12809). It counts as functional. Conditions: read-out: AC50.
Chain of Voltage-gated inwardly rectifying potassium channel KCNH2 (Q12809 whole entry): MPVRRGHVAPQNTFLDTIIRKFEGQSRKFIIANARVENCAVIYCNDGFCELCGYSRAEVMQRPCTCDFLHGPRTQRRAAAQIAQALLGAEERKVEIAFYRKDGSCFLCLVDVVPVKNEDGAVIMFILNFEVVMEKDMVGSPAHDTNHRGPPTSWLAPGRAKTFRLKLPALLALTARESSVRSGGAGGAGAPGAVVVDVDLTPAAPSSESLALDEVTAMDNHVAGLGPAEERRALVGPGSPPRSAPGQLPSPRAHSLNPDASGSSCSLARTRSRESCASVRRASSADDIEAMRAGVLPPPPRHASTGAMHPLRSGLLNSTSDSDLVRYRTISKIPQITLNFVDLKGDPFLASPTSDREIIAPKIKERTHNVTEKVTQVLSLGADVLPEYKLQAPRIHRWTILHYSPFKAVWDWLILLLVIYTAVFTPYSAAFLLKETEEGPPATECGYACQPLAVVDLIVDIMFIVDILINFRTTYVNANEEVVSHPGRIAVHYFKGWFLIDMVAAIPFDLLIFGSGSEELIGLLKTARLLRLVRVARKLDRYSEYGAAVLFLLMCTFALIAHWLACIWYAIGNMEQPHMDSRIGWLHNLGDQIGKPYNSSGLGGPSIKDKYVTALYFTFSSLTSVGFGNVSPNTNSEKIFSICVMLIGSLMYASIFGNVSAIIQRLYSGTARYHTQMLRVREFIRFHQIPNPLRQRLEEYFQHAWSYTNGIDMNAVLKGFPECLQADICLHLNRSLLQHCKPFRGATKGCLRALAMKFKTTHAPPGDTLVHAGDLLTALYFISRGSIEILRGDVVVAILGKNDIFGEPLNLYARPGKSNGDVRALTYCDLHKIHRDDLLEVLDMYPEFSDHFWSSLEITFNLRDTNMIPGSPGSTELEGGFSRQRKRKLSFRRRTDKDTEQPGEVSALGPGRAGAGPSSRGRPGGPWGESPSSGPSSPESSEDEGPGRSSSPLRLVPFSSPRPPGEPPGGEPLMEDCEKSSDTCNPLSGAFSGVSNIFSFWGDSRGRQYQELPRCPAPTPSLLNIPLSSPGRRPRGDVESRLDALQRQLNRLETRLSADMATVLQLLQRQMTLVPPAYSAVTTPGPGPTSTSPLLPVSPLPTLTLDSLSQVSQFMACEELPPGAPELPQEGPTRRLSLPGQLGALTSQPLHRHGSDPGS
The target of test [3] is T1, Alpha-1A adrenergic receptor (Homo sapiens, UniProt P35348).
T1 sequence (P35348 whole entry): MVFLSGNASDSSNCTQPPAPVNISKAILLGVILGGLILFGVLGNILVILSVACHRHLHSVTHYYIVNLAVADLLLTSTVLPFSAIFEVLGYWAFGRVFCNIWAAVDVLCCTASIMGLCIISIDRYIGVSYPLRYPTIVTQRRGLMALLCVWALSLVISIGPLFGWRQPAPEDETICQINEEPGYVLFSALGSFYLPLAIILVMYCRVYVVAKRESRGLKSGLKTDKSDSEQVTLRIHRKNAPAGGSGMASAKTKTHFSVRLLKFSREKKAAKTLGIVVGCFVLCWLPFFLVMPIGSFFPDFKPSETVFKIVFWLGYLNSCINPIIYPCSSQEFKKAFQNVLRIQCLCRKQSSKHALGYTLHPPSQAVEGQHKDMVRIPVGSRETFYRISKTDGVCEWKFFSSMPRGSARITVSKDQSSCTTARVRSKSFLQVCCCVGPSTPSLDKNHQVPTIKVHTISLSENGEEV
It counts as functional, cell-based.

Test [4] deals with T2, 5-hydroxytryptamine receptor 1A (Homo sapiens, UniProt P08908).
T2 sequence (P08908 whole entry): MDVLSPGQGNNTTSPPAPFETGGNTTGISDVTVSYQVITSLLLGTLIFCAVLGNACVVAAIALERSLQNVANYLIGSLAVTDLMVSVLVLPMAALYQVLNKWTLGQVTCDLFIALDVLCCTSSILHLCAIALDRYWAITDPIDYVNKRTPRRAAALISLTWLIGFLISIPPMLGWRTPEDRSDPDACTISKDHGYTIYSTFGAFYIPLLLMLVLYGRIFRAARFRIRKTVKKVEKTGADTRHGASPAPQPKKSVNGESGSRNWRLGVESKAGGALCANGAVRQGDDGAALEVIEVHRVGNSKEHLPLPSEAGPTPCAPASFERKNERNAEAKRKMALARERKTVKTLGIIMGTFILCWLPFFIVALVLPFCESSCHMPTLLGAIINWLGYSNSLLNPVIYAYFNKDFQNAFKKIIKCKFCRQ
It counts as functional, cell-based.

Test [5] concerns the target Beta-1 adrenergic receptor (Homo sapiens, UniProt P08588). Type of test: functional.
The target in test [6] is Kappa-type opioid receptor (Homo sapiens, UniProt P41145).
Chain of Kappa-type opioid receptor (P41145 whole entry): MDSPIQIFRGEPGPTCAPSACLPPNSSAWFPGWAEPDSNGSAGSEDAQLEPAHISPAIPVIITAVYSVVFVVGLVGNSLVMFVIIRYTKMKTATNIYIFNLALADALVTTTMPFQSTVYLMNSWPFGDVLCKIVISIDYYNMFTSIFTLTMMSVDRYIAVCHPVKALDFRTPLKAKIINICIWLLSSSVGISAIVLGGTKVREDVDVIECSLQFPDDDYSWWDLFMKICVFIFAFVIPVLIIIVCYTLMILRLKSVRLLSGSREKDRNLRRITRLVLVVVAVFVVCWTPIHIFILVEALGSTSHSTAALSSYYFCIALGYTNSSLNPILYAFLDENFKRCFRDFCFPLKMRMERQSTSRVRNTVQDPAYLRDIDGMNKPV
Test [7] has as its target T3, Neuropeptide Y receptor type 1 (Homo sapiens, UniProt P25929).
T3 sequence (P25929 whole entry): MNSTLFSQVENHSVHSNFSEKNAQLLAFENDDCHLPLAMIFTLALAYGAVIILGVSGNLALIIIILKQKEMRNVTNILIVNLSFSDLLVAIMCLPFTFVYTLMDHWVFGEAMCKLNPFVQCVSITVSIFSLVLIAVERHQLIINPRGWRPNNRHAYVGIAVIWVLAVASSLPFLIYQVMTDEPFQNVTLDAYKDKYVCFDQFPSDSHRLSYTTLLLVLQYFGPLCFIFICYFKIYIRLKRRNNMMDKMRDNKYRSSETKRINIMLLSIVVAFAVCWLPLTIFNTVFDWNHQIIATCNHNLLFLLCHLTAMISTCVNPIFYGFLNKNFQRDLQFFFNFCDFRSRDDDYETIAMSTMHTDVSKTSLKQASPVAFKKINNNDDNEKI

In test [8] the target is T4, Cannabinoid receptor 1 (Homo sapiens, UniProt P21554). It counts as functional, cell-based.
T4 sequence (P21554 whole entry): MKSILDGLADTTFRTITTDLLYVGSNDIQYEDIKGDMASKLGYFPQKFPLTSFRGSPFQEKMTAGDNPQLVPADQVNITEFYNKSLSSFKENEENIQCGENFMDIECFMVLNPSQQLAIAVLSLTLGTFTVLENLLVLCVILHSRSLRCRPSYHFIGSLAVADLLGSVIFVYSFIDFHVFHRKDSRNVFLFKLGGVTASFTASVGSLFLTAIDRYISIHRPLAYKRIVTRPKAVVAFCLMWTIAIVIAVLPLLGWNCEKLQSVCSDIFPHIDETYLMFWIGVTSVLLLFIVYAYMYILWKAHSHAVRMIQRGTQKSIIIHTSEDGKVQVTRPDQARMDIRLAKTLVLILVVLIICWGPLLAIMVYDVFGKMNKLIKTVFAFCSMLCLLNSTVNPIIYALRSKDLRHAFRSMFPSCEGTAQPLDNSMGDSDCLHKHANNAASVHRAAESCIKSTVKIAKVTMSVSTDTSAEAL
The target of test [9] is T5, Equilibrative nucleoside transporter 1 (Homo sapiens, UniProt Q99808).
T5 sequence (Q99808 whole entry): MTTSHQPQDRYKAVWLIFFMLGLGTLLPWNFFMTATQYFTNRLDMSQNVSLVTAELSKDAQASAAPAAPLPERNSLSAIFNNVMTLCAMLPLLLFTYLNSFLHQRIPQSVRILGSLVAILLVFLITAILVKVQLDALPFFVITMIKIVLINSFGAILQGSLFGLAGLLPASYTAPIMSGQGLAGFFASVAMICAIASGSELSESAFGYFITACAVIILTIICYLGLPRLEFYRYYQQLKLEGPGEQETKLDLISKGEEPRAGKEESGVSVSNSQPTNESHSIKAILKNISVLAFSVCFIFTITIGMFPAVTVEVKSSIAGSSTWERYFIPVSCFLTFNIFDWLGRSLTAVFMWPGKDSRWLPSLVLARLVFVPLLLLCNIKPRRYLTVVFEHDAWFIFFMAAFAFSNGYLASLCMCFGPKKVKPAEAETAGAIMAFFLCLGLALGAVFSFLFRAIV

Test [10] has as its target T1, Alpha-1A adrenergic receptor.
The target of test [11] is T6, Alpha-2A adrenergic receptor (Homo sapiens, UniProt P08913).
T6 sequence (P08913 whole entry): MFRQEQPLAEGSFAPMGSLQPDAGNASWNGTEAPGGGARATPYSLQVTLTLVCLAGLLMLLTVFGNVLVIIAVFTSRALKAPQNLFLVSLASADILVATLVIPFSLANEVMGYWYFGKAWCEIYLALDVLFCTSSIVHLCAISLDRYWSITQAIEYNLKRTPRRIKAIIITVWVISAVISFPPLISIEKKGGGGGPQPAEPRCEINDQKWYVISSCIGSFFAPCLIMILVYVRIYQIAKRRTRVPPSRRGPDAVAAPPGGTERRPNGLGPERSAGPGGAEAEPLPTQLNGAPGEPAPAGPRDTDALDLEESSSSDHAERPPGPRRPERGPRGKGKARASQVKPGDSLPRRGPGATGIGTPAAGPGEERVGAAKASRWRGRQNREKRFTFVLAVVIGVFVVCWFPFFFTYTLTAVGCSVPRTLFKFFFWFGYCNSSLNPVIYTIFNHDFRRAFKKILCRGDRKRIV
Type of test: functional, cell-based.

The target of test [12] is T4, Cannabinoid receptor 1. Type of test: functional, cell-based. This is another data set of the same source.
Test [13] deals with Glutamate receptor ionotropic, NMDA 1 (Rattus norvegicus, UniProt P35439).
Also: assay procedure not described here.

Chain of Adenosine receptor A2a (P29274 whole entry): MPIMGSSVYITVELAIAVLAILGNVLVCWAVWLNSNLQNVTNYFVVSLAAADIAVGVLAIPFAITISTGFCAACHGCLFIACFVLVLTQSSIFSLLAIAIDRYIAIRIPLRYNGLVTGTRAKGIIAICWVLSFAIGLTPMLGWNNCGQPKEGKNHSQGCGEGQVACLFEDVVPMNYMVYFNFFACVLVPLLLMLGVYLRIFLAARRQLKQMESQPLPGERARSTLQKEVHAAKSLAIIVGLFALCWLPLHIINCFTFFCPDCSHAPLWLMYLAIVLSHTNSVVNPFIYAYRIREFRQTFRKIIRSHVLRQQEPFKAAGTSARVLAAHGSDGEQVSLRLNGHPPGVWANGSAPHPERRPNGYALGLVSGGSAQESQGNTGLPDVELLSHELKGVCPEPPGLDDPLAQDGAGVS
Chain of Vasopressin V2 receptor (P30518 whole entry): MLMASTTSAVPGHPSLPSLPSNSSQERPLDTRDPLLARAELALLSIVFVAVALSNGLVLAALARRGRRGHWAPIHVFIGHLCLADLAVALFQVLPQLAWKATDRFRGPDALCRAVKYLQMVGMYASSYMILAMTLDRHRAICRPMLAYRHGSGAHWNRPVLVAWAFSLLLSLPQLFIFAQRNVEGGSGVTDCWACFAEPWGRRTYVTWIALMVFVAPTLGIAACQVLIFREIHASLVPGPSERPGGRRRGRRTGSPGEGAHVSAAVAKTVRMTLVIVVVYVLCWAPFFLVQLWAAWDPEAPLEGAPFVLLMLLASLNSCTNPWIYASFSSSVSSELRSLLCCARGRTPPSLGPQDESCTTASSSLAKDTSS
Chain of Motilin receptor (O43193 whole entry): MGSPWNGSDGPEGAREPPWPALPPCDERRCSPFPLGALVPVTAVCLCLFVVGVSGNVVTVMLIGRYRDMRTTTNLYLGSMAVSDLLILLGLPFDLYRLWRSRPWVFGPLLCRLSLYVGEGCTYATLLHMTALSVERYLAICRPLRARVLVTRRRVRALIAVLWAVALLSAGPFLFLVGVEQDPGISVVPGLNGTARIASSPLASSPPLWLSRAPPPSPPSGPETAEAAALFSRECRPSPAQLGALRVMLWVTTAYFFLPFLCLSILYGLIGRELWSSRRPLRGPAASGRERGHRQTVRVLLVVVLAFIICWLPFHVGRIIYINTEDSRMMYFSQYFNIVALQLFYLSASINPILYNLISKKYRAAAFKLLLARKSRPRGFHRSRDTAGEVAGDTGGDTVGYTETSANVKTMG
Chain of Melanocortin receptor 4 (P32245 whole entry): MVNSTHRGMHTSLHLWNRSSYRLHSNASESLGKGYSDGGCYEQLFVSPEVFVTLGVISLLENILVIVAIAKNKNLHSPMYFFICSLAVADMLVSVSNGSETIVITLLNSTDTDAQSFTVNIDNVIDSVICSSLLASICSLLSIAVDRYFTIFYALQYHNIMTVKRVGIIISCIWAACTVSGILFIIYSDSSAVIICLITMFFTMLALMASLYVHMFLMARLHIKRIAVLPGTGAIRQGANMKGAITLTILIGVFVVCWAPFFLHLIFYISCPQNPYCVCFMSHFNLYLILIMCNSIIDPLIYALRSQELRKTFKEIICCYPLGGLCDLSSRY
Chain of Beta-1 adrenergic receptor (P08588 whole entry): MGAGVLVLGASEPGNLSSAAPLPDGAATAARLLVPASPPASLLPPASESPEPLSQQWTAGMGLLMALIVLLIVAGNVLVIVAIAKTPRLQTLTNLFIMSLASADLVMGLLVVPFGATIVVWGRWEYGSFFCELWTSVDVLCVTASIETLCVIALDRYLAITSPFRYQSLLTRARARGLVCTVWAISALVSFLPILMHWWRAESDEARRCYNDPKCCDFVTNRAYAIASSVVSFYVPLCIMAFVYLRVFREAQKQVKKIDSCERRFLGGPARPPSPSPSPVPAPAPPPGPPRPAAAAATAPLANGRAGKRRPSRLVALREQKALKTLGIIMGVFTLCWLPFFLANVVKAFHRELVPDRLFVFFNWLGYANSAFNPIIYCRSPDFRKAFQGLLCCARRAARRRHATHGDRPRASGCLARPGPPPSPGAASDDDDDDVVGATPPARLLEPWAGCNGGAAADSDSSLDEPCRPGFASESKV

By AC50 is commonly meant the midpoint of the concentration-response curve, whichever way the signal moves. With `CC(C)CN(C[C@@H](O)[C@H](Cc1ccccc1)NC(=O)O[C@H]1CCOC1)S(=O)(=O)c1ccc(N)cc1`, the AC50 in test [1] was more than 10 µM; in test [2], more than 30 µM; in test [3], more than 30 µM; in test [4] it was more than 10 µM; in test [5], more than 10 µM; on Motilin receptor it was 7.3 µM. In addition, the AC50 at Melanocortin receptor 4 is more than 30 µM; in test [6], more than 10 µM; on Adenosine receptor A2a, more than 30 µM; in test [7], more than 30 µM; at Cannabinoid receptor 1 [8], more than 30 µM; in test [9] it was more than 10 µM. Also, the AC50 in test [10] was more than 10 µM; in test [11], more than 10 µM; at Cannabinoid receptor 1 [12], 12 µM; on Vasopressin V2 receptor it was more than 30 µM; in [13] it was more than 10 µM.
For `CC1=C(CC(=O)O)c2cc(F)ccc2/C1=C\c1ccc([S+](C)[O-])cc1` (centres undefined), the AC50 in test [1] is more than 10 µM; in test [2], more than 30 µM; in [3] it was more than 30 µM; in test [4] it was more than 10 µM; in test [5], more than 10 µM; at Motilin receptor, more than 10 µM. Besides, the AC50 is more than 30 µM on Melanocortin receptor 4; more than 10 µM in [6]; more than 30 µM on Adenosine receptor A2a; more than 30 µM in test [7]; more than 30 µM at Cannabinoid receptor 1 [8]; more than 30 µM in test [9]. For the same compound, the AC50 in test [10] was more than 10 µM; in test [11] it was more than 10 µM; on Cannabinoid receptor 1 [12], more than 30 µM; on Vasopressin V2 receptor it was more than 30 µM; in test [13], more than 10 µM.
With `Cc1nnc2n1-c1ccc(Cl)cc1C(c1ccccc1)=NC2` [ALPRAZOLAM], the AC50 in test [1] is more than 10 µM; in test [2] it was more than 30 µM; in test [3], more than 30 µM; in test [4], more than 10 µM; in [5], more than 10 µM; on Motilin receptor, more than 10 µM. Moreover, the AC50 at Melanocortin receptor 4 was more than 30 µM; in test [6], 7.48 µM; at Adenosine receptor A2a, more than 30 µM; in test [7], more than 30 µM; at Cannabinoid receptor 1 [8] it was more than 30 µM; in test [9], more than 30 µM. Moreover, the AC50 in test [10] is more than 10 µM; in test [11] it was more than 10 µM; on Cannabinoid receptor 1 [12], more than 30 µM; at Vasopressin V2 receptor it was more than 30 µM; in test [13] it was more than 10 µM.
Regarding `CCN(CC)CCCN(c1ccccc1)C1Cc2ccccc2C1` [APRINDINE], the AC50 in test [1] is more than 30 µM; in test [2], 1 µM; in test [3], more than 30 µM; in test [4] it was more than 30 µM; in test [5], more than 30 µM; on Motilin receptor, more than 30 µM. The AC50 on Melanocortin receptor 4 was more than 10 µM; in test [6] it was 0.795 µM; at Adenosine receptor A2a it was more than 30 µM; in [7], more than 30 µM; on Cannabinoid receptor 1 [8] it was more than 30 µM; in test [9], more than 30 µM. For the same compound, the AC50 in [10] is 1.3 µM; in [11] it was more than 30 µM; at Cannabinoid receptor 1 [12], more than 30 µM; at Vasopressin V2 receptor, more than 30 µM; in test [13] it was more than 30 µM.
`C[C@@H](Cc1ccccc1)N(C)Cc1ccccc1` [BENZPHETAMINE]: the AC50 is more than 10 µM in test [1]; 14.5 µM in test [2]; more than 30 µM in [3]; more than 10 µM in test [4]; more than 10 µM in test [5]; more than 10 µM at Motilin receptor. Further, the AC50 on Melanocortin receptor 4 is more than 10 µM; in test [6] it was 1.97 µM; on Adenosine receptor A2a it was more than 10 µM; in test [7], more than 10 µM; on Cannabinoid receptor 1 [8], more than 30 µM; in test [9] it was more than 30 µM. Further, the AC50 in [10] is 6.96 µM; in [11] it was more than 10 µM; on Cannabinoid receptor 1 [12], more than 30 µM; on Vasopressin V2 receptor, more than 10 µM; in test [13], more than 10 µM.
As for `COc1ccc(C(Cl)=C(c2ccc(OC)cc2)c2ccc(OC)cc2)cc1` [CHLOROTRIANISENE], the AC50 (in test [1]; in test [2]; in [3]; in test [4]; in test [5]; on Motilin receptor) was more than 30 µM throughout. Further, the AC50 on Melanocortin receptor 4 was more than 10 µM; in [6] it was more than 30 µM; on Adenosine receptor A2a it was more than 30 µM; in test [7] it was more than 30 µM; on Cannabinoid receptor 1 [8], more than 30 µM; in test [9], more than 30 µM. Moreover, the AC50 in test [10] is more than 10 µM; in test [11], more than 30 µM; on Cannabinoid receptor 1 [12] it was more than 30 µM; at Vasopressin V2 receptor, more than 30 µM; in [13], more than 30 µM.
For the compound `CN1C2CCCC1CC(NC(=O)c1nn(C)c3ccccc13)C2` (centres undefined) [GRANISETRON], the AC50 in test [1] was more than 10 µM; in [3] it was more than 30 µM; in [4], more than 10 µM; in test [5] it was more than 10 µM; at Motilin receptor, more than 10 µM; at Melanocortin receptor 4 it was more than 30 µM. Further, the AC50 in [6] is more than 10 µM; at Adenosine receptor A2a it was more than 30 µM; in test [7] it was more than 30 µM; on Cannabinoid receptor 1 [8] it was more than 30 µM; in test [9] it was more than 30 µM; in [10] it was more than 10 µM. Besides, the AC50 in test [11] was more than 10 µM; at Cannabinoid receptor 1 [12] it was more than 30 µM; at Vasopressin V2 receptor it was more than 30 µM; in test [13] it was more than 10 µM.
For `N=C(N)NC(=O)Cc1c(Cl)cccc1Cl` [GUANFACINE], the AC50 in test [1] was more than 30 µM; in [2] it was more than 30 µM; in test [3] it was 0.0245 µM; in test [4], 5.4 µM; in [5] it was more than 10 µM; on Motilin receptor, more than 10 µM. Besides, the AC50 on Melanocortin receptor 4 is more than 30 µM; in [6], 5.95 µM; on Adenosine receptor A2a, more than 30 µM; in test [7], more than 30 µM; on Cannabinoid receptor 1 [8], more than 30 µM; in [9], more than 30 µM. The AC50 in test [10] was 7.64 µM; on Cannabinoid receptor 1 [12] it was more than 30 µM; at Vasopressin V2 receptor, more than 30 µM; in test [13], more than 30 µM.
